According to patent US10799605B2 (3B PHARMACEUTICALS GMBH, priority 2014, dated 2020):
Where two headings read alike, the source gives them in different places.

Experiments:
[1] = Plasma stability assay, human plasma; type: in vitro ADME
Method: The plasma stability assay was performed to measure the degradation of compounds of the present invention in plasma. This is an important characteristic of a compound as compounds, with the exception of pro-drugs, which rapidly degrade in plasma generally show poor in vivo efficacy.
The plasma was spiked with a 10 mM analyte solution in dimethyl sulfoxide to a final concentration of 10 μM, vortexed, and aliquotted to 50 μl samples. Two aliquots were stored at −20° C. until further treatment. Another two aliquots were incubated using an Eppendorf Thermomixer at 37° C. for 1, 4, and 24 hours. Sample clean-up was performed using a protein precipitation plate (Phenomenex Strata Impact, 64722-1-324-1) and using acetonitrile as precipitation agent. […] An aliquot of 10 μl was diluted with 90 μl 0.1% aqueous trifluoroacetic acid solution. The determination of the analyte in the clean sample solutions was performed on a Thermo TSQ Quantum Ultra triple quadrupole mass spectrometer equipped with a thermo Surveyor HPLC. The chromatographic separation was carried out on a Phenomenex Kinetex XB-C18 HPLC column (50×2 mm, […] particle size) with gradient elution using a mixture of 0.01% trifluoroacetic acid and 0.05% formic acid in water as eluent A and methanol as eluent B (20% B to 100% in 8 min, 400 μl/min, 40° C.). For mass spectrometric detection the selected reaction monitoring (SRM) was used.
Quantitation was performed by external matrix calibration using an internal standard.

[2] = system: GPCRs, ion channels, and transporter proteins; experiment: Specificity screening (ExpresSProfile), whole panel; type: binding; conditions: 10^−5 M
Method: The specificity screening was carried out in order to test for unspecific binding of compounds of the present invention. The specificity for NTR1 was tested using a standard battery of assays (“ExpresSProfile”) comprising 55 assays on GPCRs, ion channels, and transporter proteins. This assay was performed by Cerep (Celle l'Evescault, France; Catalog reference P1).
Unspecific binding according to this specificity screening is observed if Inhibition of Control Specific Binding is above 50%.

A1 (h) = A1 (h) (Homo sapiens (Human), UniProt P30542); experiment: ExpresSProfile: adenosine receptor 1, antagonist radioligand; type: binding; conditions: Test Concentration 1.0E−05 M
A3 (h) = A3 (h) (Homo sapiens (Human), UniProt P0DMS8); experiment: ExpresSProfile: adenosine receptor 3, agonist radioligand; type: binding; conditions: Test Concentration 1.0E−05 M
beta 2 (h) = beta 2 (h) (Homo sapiens (Human), UniProt P07550); experiment: ExpresSProfile: beta2 adrenergic receptor, agonist radioligand; type: binding; conditions: Test Concentration 1.0E−05 M
B2 (h) = B2 (h) (Homo sapiens (Human), UniProt P30411); experiment: ExpresSProfile: bradykinin receptor 2, agonist radioligand; type: binding; conditions: Test Concentration 1.0E−05 M
CB1 (h) = CB1 (h) (Homo sapiens (Human), UniProt P21554); experiment: ExpresSProfile: cannabinoid receptor 1, agonist radioligand; type: binding; conditions: Test Concentration 1.0E−05 M
H1 (h) = H1 (h) (Homo sapiens (Human), UniProt P35367); experiment: ExpresSProfile: histamine receptor 1, antagonist radioligand; type: binding; conditions: Test Concentration 1.0E−05 M
H2 (h) = H2 (h) (Homo sapiens (Human), UniProt P25021); experiment: ExpresSProfile: histamine receptor 2, antagonist radioligand; type: binding; conditions: Test Concentration 1.0E−05 M
MC4 (h) = MC4 (h) (Homo sapiens (Human), UniProt P32245); experiment: ExpresSProfile: melanocortin receptor 4, agonist radioligand; type: binding; conditions: Test Concentration 1.0E−05 M
MT1 (ML1A) (h) = MT1 (ML1A) (h) (Homo sapiens (Human), UniProt P48039); experiment: ExpresSProfile: melatonin receptor 1, agonist radioligand; type: binding; conditions: Test Concentration 1.0E−05 M
Y1 (h) = Y1 (h) (Homo sapiens (Human), UniProt P25929); experiment: ExpresSProfile: neuropeptide Y receptor 1, agonist radioligand; type: binding; conditions: Test Concentration 1.0E−05 M
EP4 (h) = EP4 (h) (Homo sapiens (Human), UniProt P35408); experiment: ExpresSProfile: prostaglandin e receptor type 4, agonist radioligand; type: binding; conditions: Test Concentration 1.0E−05 M
5-HT2B (h) = 5-HT2B (h) (Homo sapiens (Human), UniProt P41595); experiment: ExpresSProfile: 5-hydroxytryptamine receptor 2B, agonist radioligand; type: binding; conditions: Test Concentration 1.0E−05 M
5-HT7 (h) = 5-HT7 (h) (Homo sapiens (Human), UniProt P34969); experiment: ExpresSProfile: 5-hydroxytryptamine receptor 7, agonist radioligand; type: binding; conditions: Test Concentration 1.0E−05 M
VPAC1 (VIP1) (h) = VPAC1 (VIP1) (h) (Homo sapiens (Human), UniProt P32241); experiment: ExpresSProfile: vasoactive intestinal polypeptide receptor 1, agonist radioligand; type: binding; conditions: Test Concentration 1.0E−05 M
[3] = molecular target: norepinephrine transporter (h) (Homo sapiens (Human), UniProt P23975); experiment: ExpresSProfile: norepinephrine transporter, antagonist radioligand; type: binding; conditions: Test Concentration 1.0E−05 M
5-HT transporter (h) = 5-HT transporter (h) (Homo sapiens (Human), UniProt P31645); experiment: ExpresSProfile: 5-HT transporter, antagonist radioligand; type: binding; conditions: Test Concentration 1.0E−05 M
[4] = read-out: % Inhibition of Control Specific Binding
[5] = read-out: % of Control Specific Binding 1st
[6] = read-out: % of Control Specific Binding 2nd
[7] = read-out: % of Control Specific Binding Mean

Chain of MC4 (h) (P32245 whole entry): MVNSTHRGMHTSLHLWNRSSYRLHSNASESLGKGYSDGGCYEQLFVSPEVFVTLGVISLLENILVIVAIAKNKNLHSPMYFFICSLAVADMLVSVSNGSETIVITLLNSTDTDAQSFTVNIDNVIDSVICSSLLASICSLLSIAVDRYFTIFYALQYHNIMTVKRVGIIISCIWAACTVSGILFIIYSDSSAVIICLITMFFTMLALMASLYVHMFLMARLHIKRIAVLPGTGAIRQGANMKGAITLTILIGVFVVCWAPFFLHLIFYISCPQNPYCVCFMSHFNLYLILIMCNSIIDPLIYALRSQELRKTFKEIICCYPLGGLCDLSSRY
Chain of norepinephrine transporter (h) (P23975 whole entry): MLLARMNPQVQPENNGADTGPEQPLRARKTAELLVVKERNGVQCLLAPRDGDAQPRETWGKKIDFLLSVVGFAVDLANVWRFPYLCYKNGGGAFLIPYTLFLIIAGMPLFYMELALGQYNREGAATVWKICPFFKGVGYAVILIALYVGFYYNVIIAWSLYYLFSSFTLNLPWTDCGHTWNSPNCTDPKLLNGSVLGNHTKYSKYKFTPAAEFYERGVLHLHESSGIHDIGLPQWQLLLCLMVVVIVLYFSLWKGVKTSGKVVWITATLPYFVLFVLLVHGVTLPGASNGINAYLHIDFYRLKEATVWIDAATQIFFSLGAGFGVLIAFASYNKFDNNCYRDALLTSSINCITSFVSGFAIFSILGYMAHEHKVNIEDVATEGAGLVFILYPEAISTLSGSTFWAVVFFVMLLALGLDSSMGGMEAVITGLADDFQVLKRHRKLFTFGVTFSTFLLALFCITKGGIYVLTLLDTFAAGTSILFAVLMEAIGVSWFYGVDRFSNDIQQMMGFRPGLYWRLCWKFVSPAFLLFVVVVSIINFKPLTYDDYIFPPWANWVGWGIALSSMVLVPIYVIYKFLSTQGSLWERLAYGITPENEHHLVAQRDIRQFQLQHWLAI
Chain of VPAC1 (VIP1) (h) (P32241 31-457): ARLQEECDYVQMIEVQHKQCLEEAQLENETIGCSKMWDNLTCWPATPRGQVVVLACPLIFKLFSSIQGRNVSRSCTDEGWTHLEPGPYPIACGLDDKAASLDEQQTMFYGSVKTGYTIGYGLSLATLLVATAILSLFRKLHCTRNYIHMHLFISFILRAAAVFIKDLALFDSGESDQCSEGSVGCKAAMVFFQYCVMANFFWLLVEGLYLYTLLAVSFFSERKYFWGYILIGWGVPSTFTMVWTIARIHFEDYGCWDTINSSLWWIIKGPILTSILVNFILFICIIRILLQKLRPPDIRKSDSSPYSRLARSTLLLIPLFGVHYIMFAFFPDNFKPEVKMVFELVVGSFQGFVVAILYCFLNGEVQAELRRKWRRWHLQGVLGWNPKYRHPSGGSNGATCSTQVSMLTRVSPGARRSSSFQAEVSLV
Chain of 5-HT2B (h) (P41595 whole entry): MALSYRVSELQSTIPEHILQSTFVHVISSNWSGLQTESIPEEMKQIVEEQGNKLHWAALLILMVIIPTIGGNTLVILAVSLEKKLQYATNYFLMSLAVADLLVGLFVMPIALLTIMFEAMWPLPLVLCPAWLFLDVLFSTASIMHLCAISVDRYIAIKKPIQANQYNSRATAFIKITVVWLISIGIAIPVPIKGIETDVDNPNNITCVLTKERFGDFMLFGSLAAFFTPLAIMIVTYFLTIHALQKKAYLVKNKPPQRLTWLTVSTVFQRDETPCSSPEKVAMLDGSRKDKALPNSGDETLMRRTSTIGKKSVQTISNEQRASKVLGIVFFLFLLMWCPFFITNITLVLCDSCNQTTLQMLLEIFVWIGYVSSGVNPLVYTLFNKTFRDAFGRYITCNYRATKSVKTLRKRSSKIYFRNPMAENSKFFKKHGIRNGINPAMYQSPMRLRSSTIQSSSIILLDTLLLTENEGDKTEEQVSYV
Chain of H2 (h) (P25021 whole entry): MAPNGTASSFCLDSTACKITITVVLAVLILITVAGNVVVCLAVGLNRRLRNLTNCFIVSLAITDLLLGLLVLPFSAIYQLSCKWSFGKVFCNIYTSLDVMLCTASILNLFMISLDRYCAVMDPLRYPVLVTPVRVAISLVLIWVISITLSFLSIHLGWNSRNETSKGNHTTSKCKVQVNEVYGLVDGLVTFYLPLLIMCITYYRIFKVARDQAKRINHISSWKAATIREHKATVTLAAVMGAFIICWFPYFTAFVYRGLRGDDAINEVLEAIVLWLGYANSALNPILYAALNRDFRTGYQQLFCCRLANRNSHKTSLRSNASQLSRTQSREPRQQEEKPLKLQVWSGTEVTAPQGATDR
Chain of B2 (h) (P30411 whole entry): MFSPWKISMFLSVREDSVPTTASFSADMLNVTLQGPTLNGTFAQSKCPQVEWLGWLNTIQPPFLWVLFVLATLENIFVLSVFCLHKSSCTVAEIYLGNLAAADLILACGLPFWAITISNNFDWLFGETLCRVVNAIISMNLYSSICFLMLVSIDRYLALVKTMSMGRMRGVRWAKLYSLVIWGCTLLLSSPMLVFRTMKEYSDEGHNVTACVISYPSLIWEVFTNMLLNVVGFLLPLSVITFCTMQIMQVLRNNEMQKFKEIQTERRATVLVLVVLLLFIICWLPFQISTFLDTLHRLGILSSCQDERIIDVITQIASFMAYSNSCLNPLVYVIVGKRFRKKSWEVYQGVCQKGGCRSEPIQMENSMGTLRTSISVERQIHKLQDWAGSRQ
Chain of CB1 (h) (P21554 whole entry): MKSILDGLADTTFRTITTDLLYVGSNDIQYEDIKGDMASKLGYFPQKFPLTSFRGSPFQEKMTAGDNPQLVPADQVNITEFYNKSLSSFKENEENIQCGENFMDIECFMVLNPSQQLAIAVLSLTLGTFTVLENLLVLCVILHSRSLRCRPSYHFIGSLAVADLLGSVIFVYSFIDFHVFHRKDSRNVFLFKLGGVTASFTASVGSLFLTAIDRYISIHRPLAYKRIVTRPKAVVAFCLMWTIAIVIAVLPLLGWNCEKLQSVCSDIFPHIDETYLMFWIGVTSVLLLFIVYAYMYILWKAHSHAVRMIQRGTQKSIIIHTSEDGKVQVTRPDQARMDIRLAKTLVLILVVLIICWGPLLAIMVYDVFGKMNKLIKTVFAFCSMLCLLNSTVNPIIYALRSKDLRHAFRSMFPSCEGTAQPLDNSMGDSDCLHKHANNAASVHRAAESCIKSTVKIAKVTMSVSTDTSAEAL
Chain of A1 (h) (P30542 whole entry): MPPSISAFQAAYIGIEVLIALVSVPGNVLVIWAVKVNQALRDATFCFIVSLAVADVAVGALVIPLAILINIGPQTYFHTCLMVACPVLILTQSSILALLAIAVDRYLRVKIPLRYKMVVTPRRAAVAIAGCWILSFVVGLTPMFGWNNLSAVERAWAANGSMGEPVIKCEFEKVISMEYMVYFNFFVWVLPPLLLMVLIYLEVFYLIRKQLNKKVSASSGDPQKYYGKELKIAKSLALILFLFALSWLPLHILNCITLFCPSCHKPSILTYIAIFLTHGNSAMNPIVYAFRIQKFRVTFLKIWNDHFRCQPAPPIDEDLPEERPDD
Chain of EP4 (h) (P35408 whole entry): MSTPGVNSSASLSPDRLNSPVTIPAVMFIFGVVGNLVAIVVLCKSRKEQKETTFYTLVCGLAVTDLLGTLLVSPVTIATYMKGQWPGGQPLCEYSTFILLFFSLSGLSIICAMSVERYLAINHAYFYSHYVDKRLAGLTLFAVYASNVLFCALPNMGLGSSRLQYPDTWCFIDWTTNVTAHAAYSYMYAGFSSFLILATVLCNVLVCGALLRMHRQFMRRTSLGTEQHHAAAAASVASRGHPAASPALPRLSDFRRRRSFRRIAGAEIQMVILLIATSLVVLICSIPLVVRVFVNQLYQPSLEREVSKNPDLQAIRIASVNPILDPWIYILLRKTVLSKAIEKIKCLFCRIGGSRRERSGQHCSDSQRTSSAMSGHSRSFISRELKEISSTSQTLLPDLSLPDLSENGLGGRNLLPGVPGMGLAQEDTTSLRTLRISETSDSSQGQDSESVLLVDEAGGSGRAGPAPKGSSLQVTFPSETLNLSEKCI
Chain of A3 (h) (P0DMS8 whole entry): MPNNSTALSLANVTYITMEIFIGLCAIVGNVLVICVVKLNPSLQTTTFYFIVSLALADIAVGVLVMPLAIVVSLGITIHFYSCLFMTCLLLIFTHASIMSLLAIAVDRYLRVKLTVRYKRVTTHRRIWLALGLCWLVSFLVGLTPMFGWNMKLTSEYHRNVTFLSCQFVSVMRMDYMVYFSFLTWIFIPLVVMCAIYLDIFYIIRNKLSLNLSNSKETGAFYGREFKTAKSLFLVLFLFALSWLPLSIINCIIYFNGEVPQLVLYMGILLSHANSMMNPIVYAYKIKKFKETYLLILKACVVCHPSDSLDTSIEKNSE
Chain of beta 2 (h) (P07550 whole entry): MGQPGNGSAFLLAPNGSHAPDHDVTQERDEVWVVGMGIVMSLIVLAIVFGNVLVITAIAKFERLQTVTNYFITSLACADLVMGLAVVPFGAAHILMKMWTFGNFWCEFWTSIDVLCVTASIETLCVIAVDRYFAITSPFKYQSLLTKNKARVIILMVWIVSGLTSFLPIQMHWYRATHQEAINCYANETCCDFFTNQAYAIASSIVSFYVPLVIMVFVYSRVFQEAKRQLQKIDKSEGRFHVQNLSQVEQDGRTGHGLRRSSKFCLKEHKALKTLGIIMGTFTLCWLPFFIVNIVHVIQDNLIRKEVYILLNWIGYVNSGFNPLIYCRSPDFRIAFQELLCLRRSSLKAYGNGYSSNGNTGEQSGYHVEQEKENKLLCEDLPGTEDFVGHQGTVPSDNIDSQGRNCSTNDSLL

COc1cccc(OC)c1-c1cc(C(=O)NC2(C(=O)O)C3CC4CC(C3)CC2C4)nn1-c1ccc(C(=O)N(C)CCCN(C)CCCN(C)C(=O)CN2CCN(CC(=O)O)CCN(CC(=O)O)CCN(CC(=O)O)CC2)cc1C(C)C (stereo not shown) [(IIIa), 2-{[1-{4-[(3-{[3-(DOTA-methyl-amino)-propyl]-methyl-amino}-propyl)-methyl-carbamoyl]-2-isopropyl-phenyl}-5-(2,6-dimethoxy-phenyl)-1H-pyrazole-3-carbonyl]-amino}-adamantane-2-carboxylic acid]
stability in human plasma [1]: highly stable | % remaining after 24 h incubation, Human plasma ([1]; 10 μM, 37° C., 24 h): >90% | specificity [2]: highly specific | inhibition at 10 µM (A1 (h); [4]): -24% | remaining activity at 10 µM (A1 (h); [5]): 143% | remaining activity at 10 µM (A1 (h); [6]): 104% | remaining activity at 10 µM (A1 (h); [7]): 124% | inhibition at 10 µM (A3 (h); [4]): -41% | remaining activity at 10 µM (A3 (h); [5]): 129% | remaining activity at 10 µM (A3 (h); [6]): 154% | remaining activity at 10 µM (A3 (h); [7]): 141% | inhibition at 10 µM (beta 2 (h); [4]): -2% | remaining activity at 10 µM (beta 2 (h); [5]): 107% | remaining activity at 10 µM (beta 2 (h); [6]): 96.5% | remaining activity at 10 µM (beta 2 (h); [7]): 102% | inhibition at 10 µM (B2 (h); [4]): 11% | remaining activity at 10 µM (B2 (h); [5]): 98.7% | remaining activity at 10 µM (B2 (h); [6]): 79.9% | remaining activity at 10 µM (B2 (h); [7]): 89.3% | inhibition at 10 µM (CB1 (h); [4]): 11% | remaining activity at 10 µM (CB1 (h); [5]): 96% | remaining activity at 10 µM (CB1 (h); [6]): 82.5% | remaining activity at 10 µM (CB1 (h); [7]): 89.3% | inhibition at 10 µM (H1 (h); [4]): -12% | remaining activity at 10 µM (H1 (h); [5]): 121% | remaining activity at 10 µM (H1 (h); [6]): 103% | remaining activity at 10 µM (H1 (h); [7]): 112% | inhibition at 10 µM (H2 (h); [4]): -4% | remaining activity at 10 µM (H2 (h); [5]): 106% | remaining activity at 10 µM (H2 (h); [6]): 102% | remaining activity at 10 µM (H2 (h); [7]): 104% | inhibition at 10 µM (MC4 (h); [4]): -8% | remaining activity at 10 µM (MC4 (h); [5]): 113% | remaining activity at 10 µM (MC4 (h); [6]): 104% | remaining activity at 10 µM (MC4 (h); [7]): 108% | inhibition at 10 µM (MT1 (ML1A) (h); [4]): 1% | remaining activity at 10 µM (MT1 (ML1A) (h); [5]): 103% | remaining activity at 10 µM (MT1 (ML1A) (h); [6]): 95.9% | remaining activity at 10 µM (MT1 (ML1A) (h); [7]): 99.3% | inhibition at 10 µM (Y1 (h); [4]): -34% | remaining activity at 10 µM (Y1 (h); [5]): 128% | remaining activity at 10 µM (Y1 (h); [6]): 141% | remaining activity at 10 µM (Y1 (h); [7]): 134% | inhibition at 10 µM (EP4 (h); [4]): 8% | remaining activity at 10 µM (EP4 (h); [5]): 89.2% | remaining activity at 10 µM (EP4 (h); [6]): 95.5% | remaining activity at 10 µM (EP4 (h); [7]): 92.3% | inhibition at 10 µM (5-HT2B (h); [4]): -22% | remaining activity at 10 µM (5-HT2B (h); [5]): 118% | remaining activity at 10 µM (5-HT2B (h); [6]): 125% | remaining activity at 10 µM (5-HT2B (h); [7]): 122% | inhibition at 10 µM (5-HT7 (h); [4]): 2% | remaining activity at 10 µM (5-HT7 (h); [5]): 96.6% | remaining activity at 10 µM (5-HT7 (h); [6]): 99.7% | remaining activity at 10 µM (5-HT7 (h); [7]): 98.2% | inhibition at 10 µM (VPAC1 (VIP1) (h); [4]): -6% | remaining activity at 10 µM (VPAC1 (VIP1) (h); [5]): 104% | remaining activity at 10 µM (VPAC1 (VIP1) (h); [6]): 107% | remaining activity at 10 µM (VPAC1 (VIP1) (h); [7]): 106% | inhibition at 10 µM [3, 4]: -12% | remaining activity at 10 µM [3, 5]: 119% | remaining activity at 10 µM [3, 6]: 105% | remaining activity at 10 µM [3, 7]: 112% | inhibition at 10 µM (5-HT transporter (h); [4]): -13% | remaining activity at 10 µM (5-HT transporter (h); [5]): 103% | remaining activity at 10 µM (5-HT transporter (h); [6]): 123% | remaining activity at 10 µM (5-HT transporter (h); [7]): 113%
